Measured values published in ChEMBL document CHEMBL4020722, “Synthesis and evaluation of a series of pyridine and pyrimidine derivatives as type II c-Met inhibitors” (Bioorg Med Chem, 2017).

Columns and labels:
[1] = system: HepG2; test: cells; conditions: Homo sapiens, HepG2, 72 h
[2] = system: EBC-1; test: cells; conditions: Homo sapiens, EBC-1, 72 h
[3] = biological target: T1, Hepatocyte growth factor receptor (Homo sapiens, UniProt P08581); test: Inhibition of recombinant c-MET (unknown origin) using poly (Glu, Tyr) 4:1 as substrate after 45 mins by ELISA
T1 sequence (P08581 whole entry): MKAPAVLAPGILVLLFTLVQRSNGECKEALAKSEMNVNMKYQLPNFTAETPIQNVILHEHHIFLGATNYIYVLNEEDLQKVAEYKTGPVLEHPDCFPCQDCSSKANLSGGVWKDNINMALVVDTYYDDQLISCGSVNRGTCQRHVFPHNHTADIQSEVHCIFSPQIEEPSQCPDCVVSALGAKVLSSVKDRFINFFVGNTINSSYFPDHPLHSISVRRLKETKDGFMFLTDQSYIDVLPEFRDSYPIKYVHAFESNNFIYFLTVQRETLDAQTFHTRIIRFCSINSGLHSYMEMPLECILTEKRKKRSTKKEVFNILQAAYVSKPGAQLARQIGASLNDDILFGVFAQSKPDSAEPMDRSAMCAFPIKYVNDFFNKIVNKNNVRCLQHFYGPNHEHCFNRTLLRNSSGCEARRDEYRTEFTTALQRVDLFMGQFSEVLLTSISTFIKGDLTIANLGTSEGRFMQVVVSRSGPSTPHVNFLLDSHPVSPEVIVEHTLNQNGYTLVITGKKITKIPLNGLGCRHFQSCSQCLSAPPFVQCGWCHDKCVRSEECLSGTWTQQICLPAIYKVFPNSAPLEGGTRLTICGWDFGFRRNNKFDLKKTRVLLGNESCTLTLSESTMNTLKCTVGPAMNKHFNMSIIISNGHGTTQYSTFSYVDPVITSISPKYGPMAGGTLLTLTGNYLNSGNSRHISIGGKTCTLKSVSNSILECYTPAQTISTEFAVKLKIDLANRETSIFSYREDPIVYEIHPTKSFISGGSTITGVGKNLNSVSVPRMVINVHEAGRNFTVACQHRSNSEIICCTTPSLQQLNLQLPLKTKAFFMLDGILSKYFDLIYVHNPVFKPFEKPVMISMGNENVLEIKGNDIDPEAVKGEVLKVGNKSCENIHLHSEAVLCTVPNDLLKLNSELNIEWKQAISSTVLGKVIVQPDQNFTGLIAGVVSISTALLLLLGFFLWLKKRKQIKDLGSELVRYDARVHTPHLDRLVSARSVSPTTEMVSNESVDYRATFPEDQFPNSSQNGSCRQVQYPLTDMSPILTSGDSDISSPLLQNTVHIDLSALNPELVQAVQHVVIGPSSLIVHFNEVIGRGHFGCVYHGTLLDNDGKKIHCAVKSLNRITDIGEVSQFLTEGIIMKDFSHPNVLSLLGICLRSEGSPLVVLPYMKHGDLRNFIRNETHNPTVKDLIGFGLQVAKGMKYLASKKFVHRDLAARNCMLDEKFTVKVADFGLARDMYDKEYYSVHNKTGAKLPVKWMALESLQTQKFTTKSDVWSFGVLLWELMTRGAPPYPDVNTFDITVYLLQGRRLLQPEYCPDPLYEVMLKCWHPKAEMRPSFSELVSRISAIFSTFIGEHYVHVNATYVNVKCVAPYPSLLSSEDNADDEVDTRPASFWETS

[4] = biological target: Platelet-derived growth factor receptor alpha (Homo sapiens, UniProt P16234); test: Inhibition of PDGFRalpha (unknown origin) by HTRF method
Chain of Platelet-derived growth factor receptor alpha (P16234 whole entry): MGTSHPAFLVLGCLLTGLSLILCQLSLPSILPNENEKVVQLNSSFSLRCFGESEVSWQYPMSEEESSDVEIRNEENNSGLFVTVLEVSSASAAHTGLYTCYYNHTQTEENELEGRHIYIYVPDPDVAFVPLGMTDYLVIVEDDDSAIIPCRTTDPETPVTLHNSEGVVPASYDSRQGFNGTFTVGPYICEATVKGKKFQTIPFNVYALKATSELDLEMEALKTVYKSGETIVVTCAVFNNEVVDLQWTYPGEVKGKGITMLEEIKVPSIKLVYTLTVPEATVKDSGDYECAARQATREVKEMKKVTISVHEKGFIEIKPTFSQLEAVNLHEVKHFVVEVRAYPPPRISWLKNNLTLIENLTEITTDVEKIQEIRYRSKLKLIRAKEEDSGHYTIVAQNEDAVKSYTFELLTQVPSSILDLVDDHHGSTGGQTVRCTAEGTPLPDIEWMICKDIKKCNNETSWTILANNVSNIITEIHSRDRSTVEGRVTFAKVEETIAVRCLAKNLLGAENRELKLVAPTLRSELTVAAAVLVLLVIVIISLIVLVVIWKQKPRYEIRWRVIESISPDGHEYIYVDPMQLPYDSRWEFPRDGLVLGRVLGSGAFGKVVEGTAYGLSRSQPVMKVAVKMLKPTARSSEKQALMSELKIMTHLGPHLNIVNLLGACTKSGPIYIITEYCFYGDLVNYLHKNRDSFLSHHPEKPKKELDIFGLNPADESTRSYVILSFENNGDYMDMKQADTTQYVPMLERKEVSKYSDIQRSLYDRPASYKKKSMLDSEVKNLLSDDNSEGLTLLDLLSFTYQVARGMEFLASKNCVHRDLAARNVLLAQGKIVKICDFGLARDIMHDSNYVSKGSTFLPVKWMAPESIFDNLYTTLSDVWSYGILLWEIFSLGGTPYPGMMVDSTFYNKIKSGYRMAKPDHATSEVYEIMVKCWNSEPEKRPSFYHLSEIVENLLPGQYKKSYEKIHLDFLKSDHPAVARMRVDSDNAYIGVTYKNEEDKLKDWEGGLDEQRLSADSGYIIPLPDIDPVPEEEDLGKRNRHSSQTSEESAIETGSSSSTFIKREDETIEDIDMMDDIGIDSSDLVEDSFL

[5] = biological target: Mast/stem cell growth factor receptor Kit (Homo sapiens, UniProt P10721); test: Inhibition of KIT (unknown origin) by HTRF method
Chain of Mast/stem cell growth factor receptor Kit (P10721 whole entry): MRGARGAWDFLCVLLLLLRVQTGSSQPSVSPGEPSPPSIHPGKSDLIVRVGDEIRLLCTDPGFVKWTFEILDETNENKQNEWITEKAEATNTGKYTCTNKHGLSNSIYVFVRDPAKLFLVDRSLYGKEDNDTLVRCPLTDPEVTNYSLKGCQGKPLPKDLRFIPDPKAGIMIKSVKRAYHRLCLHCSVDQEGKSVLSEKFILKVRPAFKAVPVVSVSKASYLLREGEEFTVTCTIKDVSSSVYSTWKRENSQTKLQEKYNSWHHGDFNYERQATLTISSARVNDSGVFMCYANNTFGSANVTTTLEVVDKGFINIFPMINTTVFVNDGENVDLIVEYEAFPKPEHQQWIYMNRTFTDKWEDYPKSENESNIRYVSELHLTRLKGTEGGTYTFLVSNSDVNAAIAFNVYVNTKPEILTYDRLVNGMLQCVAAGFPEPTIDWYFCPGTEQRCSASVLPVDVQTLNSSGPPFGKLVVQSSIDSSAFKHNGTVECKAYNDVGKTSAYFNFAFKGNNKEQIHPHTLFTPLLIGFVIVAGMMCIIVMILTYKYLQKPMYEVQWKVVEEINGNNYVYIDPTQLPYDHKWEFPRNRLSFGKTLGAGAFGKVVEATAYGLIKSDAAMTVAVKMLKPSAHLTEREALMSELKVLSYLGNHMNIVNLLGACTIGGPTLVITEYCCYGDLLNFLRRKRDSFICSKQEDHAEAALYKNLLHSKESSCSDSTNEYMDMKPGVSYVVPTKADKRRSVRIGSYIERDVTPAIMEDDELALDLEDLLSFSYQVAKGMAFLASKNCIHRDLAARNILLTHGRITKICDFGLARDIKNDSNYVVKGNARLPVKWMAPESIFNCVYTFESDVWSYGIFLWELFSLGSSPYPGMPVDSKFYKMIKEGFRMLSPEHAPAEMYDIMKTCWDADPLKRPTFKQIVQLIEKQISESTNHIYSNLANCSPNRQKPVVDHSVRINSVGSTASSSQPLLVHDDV

[6] = biological target: Epidermal growth factor receptor (Homo sapiens, UniProt P00533); test: Inhibition of EGFR (unknown origin) by HTRF method
[7] = biological target: T1, Hepatocyte growth factor receptor; conditions: 0.1 mM
[8] = biological target: Vascular endothelial growth factor receptor 2 (Homo sapiens, UniProt P35968)
[9] = biological target: Proto-oncogene tyrosine-protein kinase receptor Ret (Homo sapiens, UniProt P07949); test: Inhibition of RET (unknown origin) by HTRF method
Chain of Proto-oncogene tyrosine-protein kinase receptor Ret (P07949 whole entry): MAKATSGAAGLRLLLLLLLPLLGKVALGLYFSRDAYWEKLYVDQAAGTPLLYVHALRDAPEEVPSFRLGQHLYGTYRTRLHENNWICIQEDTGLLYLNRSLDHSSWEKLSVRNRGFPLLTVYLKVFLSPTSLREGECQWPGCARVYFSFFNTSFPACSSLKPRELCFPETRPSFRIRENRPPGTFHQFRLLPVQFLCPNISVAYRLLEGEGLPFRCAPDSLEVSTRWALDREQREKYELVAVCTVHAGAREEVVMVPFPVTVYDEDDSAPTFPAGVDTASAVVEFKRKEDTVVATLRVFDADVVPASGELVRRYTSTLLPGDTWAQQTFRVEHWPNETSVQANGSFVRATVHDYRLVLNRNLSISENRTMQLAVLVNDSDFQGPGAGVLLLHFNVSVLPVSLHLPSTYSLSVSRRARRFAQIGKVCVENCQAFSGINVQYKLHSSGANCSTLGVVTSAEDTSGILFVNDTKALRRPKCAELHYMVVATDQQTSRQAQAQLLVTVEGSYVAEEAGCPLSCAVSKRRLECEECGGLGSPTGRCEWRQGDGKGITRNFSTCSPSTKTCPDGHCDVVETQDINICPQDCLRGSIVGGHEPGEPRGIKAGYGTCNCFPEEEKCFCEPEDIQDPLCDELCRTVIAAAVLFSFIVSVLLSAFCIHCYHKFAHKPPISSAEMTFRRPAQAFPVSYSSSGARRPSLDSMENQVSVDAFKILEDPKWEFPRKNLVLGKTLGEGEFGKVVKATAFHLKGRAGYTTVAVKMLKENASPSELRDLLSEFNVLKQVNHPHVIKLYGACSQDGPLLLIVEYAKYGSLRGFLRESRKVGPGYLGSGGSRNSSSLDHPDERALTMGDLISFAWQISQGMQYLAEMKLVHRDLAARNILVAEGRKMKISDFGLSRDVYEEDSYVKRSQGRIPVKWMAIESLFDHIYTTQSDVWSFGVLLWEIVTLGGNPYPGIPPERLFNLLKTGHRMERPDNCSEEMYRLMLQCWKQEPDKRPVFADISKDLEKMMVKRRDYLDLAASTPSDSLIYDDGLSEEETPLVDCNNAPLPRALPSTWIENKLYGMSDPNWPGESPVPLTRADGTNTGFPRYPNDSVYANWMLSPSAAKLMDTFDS

[10] = biological target: T2, Receptor-type tyrosine-protein kinase FLT3 (Homo sapiens, UniProt P36888); test: Inhibition of FLT3 (unknown origin) by HTRF method
T2 sequence (P36888 whole entry): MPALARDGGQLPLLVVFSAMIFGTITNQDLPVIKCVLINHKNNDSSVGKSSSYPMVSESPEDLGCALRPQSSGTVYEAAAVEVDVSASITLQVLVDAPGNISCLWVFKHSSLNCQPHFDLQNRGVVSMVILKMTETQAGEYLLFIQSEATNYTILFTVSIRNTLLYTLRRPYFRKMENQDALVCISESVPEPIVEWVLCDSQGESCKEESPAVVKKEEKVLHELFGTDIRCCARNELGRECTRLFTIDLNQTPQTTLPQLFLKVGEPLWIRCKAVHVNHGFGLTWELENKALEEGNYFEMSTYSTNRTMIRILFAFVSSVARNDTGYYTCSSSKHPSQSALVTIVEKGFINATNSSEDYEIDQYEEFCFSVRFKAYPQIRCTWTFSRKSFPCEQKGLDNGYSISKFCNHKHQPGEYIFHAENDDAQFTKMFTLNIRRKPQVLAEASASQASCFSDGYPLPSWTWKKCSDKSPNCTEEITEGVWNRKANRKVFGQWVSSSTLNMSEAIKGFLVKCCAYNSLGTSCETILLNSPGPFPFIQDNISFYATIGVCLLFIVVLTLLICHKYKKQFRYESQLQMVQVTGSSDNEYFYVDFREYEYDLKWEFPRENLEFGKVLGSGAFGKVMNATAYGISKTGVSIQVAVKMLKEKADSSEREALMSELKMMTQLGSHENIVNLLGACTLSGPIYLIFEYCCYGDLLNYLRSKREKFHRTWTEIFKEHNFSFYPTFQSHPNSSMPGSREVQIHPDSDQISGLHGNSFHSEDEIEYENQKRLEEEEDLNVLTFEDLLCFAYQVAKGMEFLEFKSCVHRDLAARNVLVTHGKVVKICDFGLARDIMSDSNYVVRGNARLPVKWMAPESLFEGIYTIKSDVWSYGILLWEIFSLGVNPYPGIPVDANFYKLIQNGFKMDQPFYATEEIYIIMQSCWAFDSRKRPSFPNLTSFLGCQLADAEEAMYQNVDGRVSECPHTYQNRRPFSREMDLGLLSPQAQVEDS

IC50 [1]	IC50 [2]	IC50 [3]	Compound	also measured
> 1000 nM	> 1000 nM	–	Nc1cc(Oc2ccc(NC(=O)C3(C(=O)Nc4ccc(F)cc4)CC3)cc2F)ncn1	–
> 1000 nM	967 nM	–	Nc1nccc(Oc2ccc(NC(=O)C3(C(=O)Nc4ccc(Cl)cc4)CC3)cc2F)c1Cl	–
–	–	> 10000 nM	COc1ccc(NC(=O)C2(C(=O)Nc3ccc(Oc4cc(N)ncn4)c(F)c3)CC2)cc1	–
> 1000 nM	127 nM	17 nM	Nc1nccc(Oc2ccc(NC(=O)C3(C(=O)Nc4ccc(F)cc4)CC3)cc2F)c1Cl	IC50 [5]: 279 nM; IC50 [4]: 172 nM; IC50 [6]: > 1000 nM; inhibition [7]: 100%; IC50 [8]: 55 nM; IC50 [9]: 387 nM; IC50 [10]: 2220 nM
> 1000 nM	> 1000 nM	–	Nc1nccc(Oc2ccc(NC(=O)C3(C(=O)Nc4ccc(F)cc4)CC3)cc2F)n1	–
> 1000 nM	> 1000 nM	–	Nc1nccc(Oc2ccc(NC(=O)C3(C(=O)Nc4cccc(F)c4)CC3)cc2F)c1Cl	–

Continued, molecule first:

Compound	IC50 [1]	IC50 [2]	IC50 [3]	also measured
COc1cccc2c1C(=O)c1c(O)c3c(c(O)c1C2=O)C[C@@](O)(C(=O)CO)C[C@@H]3O[C@H]1C[C@H](N)[C@H](O)[C@H](C)O1 [DOXORUBICIN]	98.7 nM	305 nM	–	–
Nc1cc(Oc2ccc(NC(=O)C3(C(=O)NCc4ccc(F)cc4)CC3)cc2F)ncn1	–	–	> 10000 nM	–
COc1cc2nccc(Oc3ccc(NC(=O)C4(C(=O)Nc5ccc(F)cc5)CC4)cc3)c2cc1OC [CABOZANTINIB]	–	–	–	IC50 [4]: > 10000 nM
Nc1nccc(Oc2ccc(NC(=O)C3(C(=O)NCc4ccc(F)cc4)CC3)cc2F)n1	–	–	> 10000 nM	–
Nc1cc(Oc2ccc(NC(=O)C3(C(=O)Nc4ccc(Cl)cc4)CC3)cc2F)ncn1	> 1000 nM	> 1000 nM	–	–
CCOc1ccn(-c2ccc(F)cc2)c(=O)c1C(=O)Nc1ccc(Oc2ccnc(N)c2Cl)c(F)c1 [BMS-777607]	–	162 nM	12 nM	IC50 [4]: 28 nM
